Experiments:
IL-8 production = test: P. acnes-induced IL-8 production in HaCaT keratinocytes (ELISA); type: cell-based, human; settings: for reduction of IL-8 production, 24 h pre-treatment / effect on IL-8 production (time course, FIG. 4A) / effect on IL-8 production at 12.5 μM, in words / reduction of IL-8 production, 1 and 6 h pre-treatment / decrease of IL-8 production, 48 h pre-treatment: HaCaT; for reduction of IL-8 production, 24 h pre-treatment: 6.25 μM; for reduction of IL-8 production, 24 h pre-treatment / reduction of IL-8 production, 1 and 6 h pre-treatment / decrease of IL-8 production, 48 h pre-treatment: P. acnes 18 h; for effect on IL-8 production (time course, FIG. 4A): 10 μM, P. acnes 15-180 min; for reduction of IL-8 production, 24 h pre-treatment / effect on IL-8 production (time course, FIG. 4A): 24 h pre-treatment; for effect on IL-8 production at 12.5 μM, in words: 24 h pre-treatment (FIG. 8B); for reduction of IL-8 production, 1 and 6 h pre-treatment: 0.39 to 12.5 μM; for IC50: Homo sapiens, HaCaT cells pre-treated 24 h, then stimulated with P. acnes, read-out: IC50 of inhibition of IL-8 production
Protocol: Bacterial strain and conditions of growth. P. acnes strain 6919 was obtained from the American Type Culture Collection (Manassas, Va.) and P. acnes strains RON and PIE were isolated from patient with joint infection. All strains were grown under anaerobic conditions in reinforced clostridial liquid and solid medium (RCM) (Difco Laboratories, Detroit, Mich.). P. acnes was transferred from the bacterial stock onto RCM agar plate and incubated for 5 days under anaerobic condition by using a GasPak™ EZ Anaerobic Container System (Becton Dickinson & Co, Sparks Md., USA). A single colony was transferred into 100 ml RCM and grown as described above. Bacterial suspension was then store frozen at −80° C. in presence of 10% glycerol final. This stock was called «start stock» and used for all the experiments. For routine culture, 100 ml of RCM was used and bacteria were harvested after 5 days at 37° C. by centrifugation at 7,000×g for 10 min at 4° C. Pellets were pooled and washed in about 30 ml of cold sterile PBS [1.5 mM KH2PO4, 2.7 mM Na2HPO4.7H2O, 0.15 M NaCl (pH 7.4)] and centrifuged again as described above. Finally, the bacterial pellet was suspended in sterile PBS (1:10 from volume culture).
Cell culture, pretreatment and stimulation. The immortalized human keratinocyte cell line HaCaT, fibroblast MRC5 were grown in Dulbecco's modified Eagle's medium-Glutamax-I (DMEM) with 1 mM sodium pyruvate. The immortalized human monocytic cell line ThP1 was grown in Roswell Park Memorial Institute 1640 Medium-Glutamax-I (RPMI). DMEM and RPMI were supplemented with 0.1% and 10% heat-inactivated fetal calf serum (Invitrogen), and an antibiotic/antimycotic solution (10 U/ml Pencillin, 10 μg/ml Streptomycin, 0.25 μg/ml Amphoterin) at 37° C. in humidified atmosphere containing 5% CO2 as described (Life Technologie). Primary human keratinocytes (NHDK) and fibroblast (HDF) were grown in the KGM-Gold and in FGM-2 Bullet Kit, respectively, as described by the manufacturer (Lonza). The immortalized cell lines were routinely tested to assess the absence of Mycoplasma infection. Cells, cultivated in 6- or 96-well polystyrene plates, were pretreated with appropriate molecule solution for 1 to 48 h at 37° C. in the dark at the appropriate concentration. Then, for stimulation, cells were incubated for 15 min to 24 h with the P. acnes suspension adjusted at the appropriate concentration at 37° C. in 5% CO2. For experiences using an in vitro model of psoriasis, the primary human keratinocytes (NHDK) were grown in culture medium for 24 hours. The medium was removed and replaced with culture medium containing meclozine, diclazuril and JAK inhibitor (used as positive control) at the concentrations of 0.39, 0.78, 1.56, 3.12, 6.25 and 12.5 μM and the pro-inflammatory mixture M5 (combination of IL-17A, OSM, TNF-α, IL-22, IL-1α at 10 ng/ml) was added to the cells followed by an incubation for 48 or 72 hours.
ELISA. Human IL-1β, IL-8, hBD-2 and TNF-α protein concentration were measured in the supernatants of stimulated cells using various ELISA Sets (all from Ready-Set-Go from eBioscience, except hBD-2 measurements: Human DEFB4A/BD-2 ELISA Kit from LSBio) according to the manufacturer's instructions. We used serial dilutions of recombinant human IL-1β, IL-8, hBD-2 and TNF-α for standard curve. The optical density was determined at 450 nm at a wavelength correction of 540 nm.
Both molecules, diclazuril and meclozine, were purchased separately from Sigma and tested independently on immortalized keratinocytes HaCaT cell for their capacity to inhibit the IL-8 production in a dose-dependent manner. HaCaT cells were pre-treated with diclazuril and meclozine, at the concentrations ranging from 0.39 to 50 μM, for 24 h and then stimulated with P. acnes suspension as described in Materials and Methods. The production of IL-8 was measured on culture supernatant by ELISA and the viability of cells was estimated by MTT assay (FIG. 1).

mTOR = test: Western blot of p-mTOR/mTOR in P. acnes-stimulated HaCaT cells; type: cell-based, human; settings: 25 μM, 24 h pre-treatment
Protocol: Western Blot analysis. Whole cell protein extracts (25 μg) were separated by electrophoresis (LDS-PAGE) under denaturing conditions with NuPAGE Novex 4-12% Bis-Tris gel (1 mm, 12 wells, Invitrogen, UK) and proteins were transferred onto nitrocellulose membranes and saturated in 20 ml of saturation buffer consisting of TBS 1× (Tris Buffered Saline) containing 200 mM Tris, 1.4 M NaCl (pH 7.6), 5% no fat milk, 0.1% Tween 20 for 1 h. […] After washing to remove unbound antibodies, bound primary antibodies were detected by incubation for 1 h using secondary antibody against rabbit- and mouse IgG (Santa Cruz Biotechnology, SC-2357, 1:5000 and SC-2005, 1:5000, respectively). Unbound material was removed by washing and peroxidase activity was detected in a chemiluminescence assay (WesternBright ECL, Advansta, Menlo Park, USA). […]

| SMILES | reduction of IL-8 production, 24 h pre-treatment (IL-8 production) [%] | effect on IL-8 production (time course, FIG. 4A) (IL-8 production) | effect on IL-8 production at 12.5 μM, in words (IL-8 production) | reduction of IL-8 production, 1 and 6 h pre-treatment (IL-8 production) | decrease of IL-8 production, 48 h pre-treatment (IL-8 production) [%] | IC50 (IL-8 production) [µM] | phosphorylation of mTOR induced by P. acnes (mTOR) |
| --- | --- | --- | --- | --- | --- | --- | --- |
| Cc1cccc(CN2CCN(C(c3ccccc3)c3ccc(Cl)cc3)CC2)c1 (centres unmarked) [meclozine, Meclozine] | 63 | inhibit | strong effect | did not reduce significantly | 78 | ~3 | did not cause any changed |
| N#CC(c1ccc(Cl)cc1)c1c(Cl)cc(-n2ncc(=O)[nH]c2=O)cc1Cl (centres unmarked) [diclazuril, Diclazuril] | 36 | inhibit | strong effect | did not reduce significantly | 65 | ~6 | did not cause any changed |

From patent US11617748B2, “Meclozine derivatives and diclazuril derivatives for use in the prevention and/or the treatment of disorders associated to the inflammation induced by P. acnes” (priority 2016, dated 2023)
